Assay results taken from ChEMBL document CHEMBL1135659, “Sulfamide-based inhibitors for carboxypeptidase A. Novel type transition state analogue inhibitors for zinc proteases” (J Med Chem, 2002).

Target: T1, Carboxypeptidase A1 (Bos taurus, UniProt P00730)
T1 sequence (P00730 whole entry): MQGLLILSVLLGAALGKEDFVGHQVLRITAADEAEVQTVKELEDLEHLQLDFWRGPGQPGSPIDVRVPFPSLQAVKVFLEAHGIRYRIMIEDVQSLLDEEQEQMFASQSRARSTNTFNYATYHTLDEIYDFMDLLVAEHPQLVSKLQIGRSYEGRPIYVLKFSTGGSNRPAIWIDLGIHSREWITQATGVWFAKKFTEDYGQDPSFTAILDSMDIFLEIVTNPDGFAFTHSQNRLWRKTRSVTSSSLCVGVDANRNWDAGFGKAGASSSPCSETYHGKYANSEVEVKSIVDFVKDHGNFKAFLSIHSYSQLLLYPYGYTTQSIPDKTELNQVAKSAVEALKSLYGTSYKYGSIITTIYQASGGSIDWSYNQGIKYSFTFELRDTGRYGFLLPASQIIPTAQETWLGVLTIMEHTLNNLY
Assay: Inhibitory activity against Carboxypeptidase A

Row | Compound | Ki [µM]
1 | CC(C)NS(=O)(=O)N[C@@H](Cc1ccccc1)C(=O)O | 610
2 | O=C(O)[C@H](Cc1ccccc1)NS(=O)(=O)NCc1ccccc1 | 35
3 | O=C(O)[C@H](Cc1ccccc1)NS(=O)(=O)NCCc1ccccc1 | 180
4 | NS(=O)(=O)NCC(Cc1ccccc1)C(=O)O (stereo not drawn) | 2900
5 | NS(=O)(=O)NC[C@@H](Cc1ccccc1)C(=O)O | 1400
6 | NS(=O)(=O)N[C@H](Cc1ccccc1)C(=O)O | 470
7 | CNS(=O)(=O)N[C@@H](Cc1ccccc1)C(=O)O | 180
8 | CN([C@@H](Cc1ccccc1)C(=O)O)S(N)(=O)=O | 3500
